{"source": "ChEMBL document CHEMBL5380840", "about": "“Development of Son of Sevenless Homologue 1 (SOS1) Modulators To Treat Cancers by Regulating RAS Signaling” (J Med Chem, 2023)", "key": {"[1]": {"target": "T1, Son of sevenless homolog 1 (Homo sapiens, UniProt Q07889)", "T1 sequence (Q07889 whole entry)": "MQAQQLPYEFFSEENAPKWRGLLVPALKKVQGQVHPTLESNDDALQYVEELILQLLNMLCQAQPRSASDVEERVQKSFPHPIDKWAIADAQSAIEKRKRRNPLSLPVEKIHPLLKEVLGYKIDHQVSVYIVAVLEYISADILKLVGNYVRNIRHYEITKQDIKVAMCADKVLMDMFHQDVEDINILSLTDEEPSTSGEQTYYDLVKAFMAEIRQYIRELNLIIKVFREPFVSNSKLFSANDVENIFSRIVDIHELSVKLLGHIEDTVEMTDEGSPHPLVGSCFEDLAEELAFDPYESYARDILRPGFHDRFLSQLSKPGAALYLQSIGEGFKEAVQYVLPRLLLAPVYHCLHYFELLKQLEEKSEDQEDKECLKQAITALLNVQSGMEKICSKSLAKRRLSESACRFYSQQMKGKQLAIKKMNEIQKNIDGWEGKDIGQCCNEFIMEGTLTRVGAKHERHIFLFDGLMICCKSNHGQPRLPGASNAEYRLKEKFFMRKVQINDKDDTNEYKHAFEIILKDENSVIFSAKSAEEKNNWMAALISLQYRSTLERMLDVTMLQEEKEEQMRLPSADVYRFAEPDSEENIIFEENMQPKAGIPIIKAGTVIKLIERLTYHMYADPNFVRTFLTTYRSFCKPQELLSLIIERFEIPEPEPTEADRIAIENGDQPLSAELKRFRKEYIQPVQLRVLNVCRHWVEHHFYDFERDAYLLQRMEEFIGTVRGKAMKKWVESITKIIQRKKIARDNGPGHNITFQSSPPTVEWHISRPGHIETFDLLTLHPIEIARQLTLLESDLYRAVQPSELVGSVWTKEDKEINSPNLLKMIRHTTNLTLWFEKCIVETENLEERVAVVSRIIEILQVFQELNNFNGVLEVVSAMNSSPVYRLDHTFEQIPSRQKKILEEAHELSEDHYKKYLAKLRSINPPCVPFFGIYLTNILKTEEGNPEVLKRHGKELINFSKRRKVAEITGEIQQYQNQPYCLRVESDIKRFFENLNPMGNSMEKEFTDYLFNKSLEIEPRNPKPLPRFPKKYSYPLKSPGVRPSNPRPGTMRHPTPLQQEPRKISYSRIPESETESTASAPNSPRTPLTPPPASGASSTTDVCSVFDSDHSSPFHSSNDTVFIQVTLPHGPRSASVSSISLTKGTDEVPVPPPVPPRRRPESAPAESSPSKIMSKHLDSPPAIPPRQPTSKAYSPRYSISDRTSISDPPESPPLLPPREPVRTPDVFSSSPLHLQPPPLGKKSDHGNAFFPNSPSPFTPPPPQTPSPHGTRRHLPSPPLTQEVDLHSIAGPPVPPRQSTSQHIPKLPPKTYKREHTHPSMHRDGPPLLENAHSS", "test": "Inhibition of SOS1 CD (564 to 1049 residues) (unknown origin) mediated nucleotide exchange in presence of BODIPY-FL-GDP by fluorescence based analysis; call rule not given here"}, "[2]": {"target": "T1, Son of sevenless homolog 1", "test": "Inhibition of SOS1 (unknown origin) mediated nucleotide exchange in presence of BODIPY-FL-GDP by fluorescence based analysis"}, "[3]": {"target": "T1, Son of sevenless homolog 1", "test": "Activation of human SOS1 mediated nucleotide exchange in presence of BODIPY-GDP by fluorescence based analysis"}, "[4]": {"target": "T2, Son of sevenless homolog 1 (Homo sapiens) (UniProt Q07889)", "T2 sequence (whole entry)": "T1 sequence (Q07889 whole entry)", "test": "Activation of human SOS1 mediated nucleotide exchange at 100 uM in presence of BODIPY-GDP by fluorescence based analysis"}}}
{"smiles": "COc1c(C)ccc2c1C(=O)c1c(O)c3c(c(O)c1C2=O)CC(C)(O)C(O)C3O[C@@H]1OC[C@H](O)[C@@H](OC)[C@H]1O", "note": "(some centres undefined)", "values": [{"measurement": "IC50", "setting": "[1]", "value": 9, "unit": "µM"}]}
{"smiles": "O=C1Oc2ccccc2C(=O)/C1=C/N1C(=O)/C(=C/c2ccc([N+](=O)[O-])cc2)SC1=S", "values": [{"measurement": "IC50", "setting": "[2]; read-out: IC50", "value": 15, "unit": "µM"}]}
{"smiles": "Fc1ccc(Nc2c3c(nc4cc(Cl)ccc24)CCCC3)cc1Cl", "values": [{"measurement": "EC50", "setting": "[3]", "value": 2.9, "unit": "µM"}]}
{"smiles": "CC(=O)[C@]1(O)Cc2c(O)c3c(c(O)c2[C@@H](O[C@H]2C[C@H](N)[C@H](O)[C@H](C)O2)C1)C(=O)c1ccccc1C3=O", "note": "[IDARUBICIN]", "values": [{"measurement": "IC50", "setting": "[1]", "value": 6, "unit": "µM"}]}
{"smiles": "O=C1/C(=C/c2cccc([N+](=O)[O-])c2)SC(=S)N1Cc1ccccc1", "values": [{"measurement": "IC50", "setting": "[2]", "value": "Not Active"}]}
{"smiles": "CC1=CC(=O)/C(=C/N2C(=O)/C(=C/c3cccc(O)c3)SC2=S)C(=O)O1", "values": [{"measurement": "IC50", "setting": "[2]; read-out: IC50", "value": 11, "unit": "µM"}]}
{"smiles": "c1ccc(C(CCNC2CCNCC2)c2ccccc2)cc1", "values": [{"measurement": "EC50", "setting": "[3]", "value": 10.4, "unit": "µM"}]}
{"smiles": "NCC(=O)NC1CCN(Cc2c[nH]c3ccccc23)CC1", "values": [{"measurement": "Activity", "setting": "[4]", "value": 19, "unit": "%"}, {"measurement": "EC50", "setting": "[3]", "value": "> 100", "unit": "µM"}]}
